# Source: paper PMC5399312 (Journal of Experimental & Clinical Cancer Research : CR, 2017)
# Where two headings read alike, the source gives them in different places.
# How the values were obtained:
# SW480 cells xenograft = conditions: for decrease of size and weight of tumors: 16 days, versus vehicle
# Procedure: All animal experiments were performed in accordance with the Guide for the Care and Use of Laboratory Animals of Tongji Medical College, Huazhong University of Science and Technology and approved by the Ethics Committee. CB-17/ SCID mice (male, 4 weeks old) were purchased from Beijing HFK Bioscience CO., LTD (Beijing, China). SW480 cells were inoculated subcutaneously (3 × 10^6 cells) into the left flank of each mouse. […] The dose volume was 0.1 mL/10 g body weight, and the weights of mice were recorded every day. Meanwhile, the tumor volumes were measured with vernier calipers and calculated by the following formula: (A × B^2)/2, where A was length and B was width of the two-dimension tumor. After animals were sacrificed, tumor weights were measured. The inhibition ratio (%) was calculated using the following equation: I% = 100% × [Wtumor (vehicle) − Wtumor (treated)]/Wtumor (vehicle)
# G6P-DH = molecular target: T1, G6P-DH (Leuconostoc mesenteroides, UniProt P11411); assay: Interference with coupling enzyme; format: biochemical
# T1 construct: purchased Roche (Switzerland)
# T1 sequence (P11411 1-486): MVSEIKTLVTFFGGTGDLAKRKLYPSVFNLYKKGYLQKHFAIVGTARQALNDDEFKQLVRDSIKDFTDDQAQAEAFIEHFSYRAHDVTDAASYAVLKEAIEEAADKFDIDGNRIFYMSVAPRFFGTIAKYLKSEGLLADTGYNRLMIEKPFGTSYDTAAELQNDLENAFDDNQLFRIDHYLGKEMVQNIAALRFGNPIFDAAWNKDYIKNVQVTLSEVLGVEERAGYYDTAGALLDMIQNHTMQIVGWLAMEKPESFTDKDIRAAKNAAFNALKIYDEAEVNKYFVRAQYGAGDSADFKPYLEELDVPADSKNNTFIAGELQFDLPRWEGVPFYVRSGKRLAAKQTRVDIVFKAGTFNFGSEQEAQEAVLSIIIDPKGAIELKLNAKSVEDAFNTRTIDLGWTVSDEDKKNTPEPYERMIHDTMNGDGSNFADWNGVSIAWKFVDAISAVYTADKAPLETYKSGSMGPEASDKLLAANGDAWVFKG
# Procedure: (§1) Then 85 μL assay mix containing 100 mM Tris HCl pH 8.0, 5 mM MgCl2, 200 mM Glucose, 0.8 mM ATP, 1 mM NAD^+, 0.25 Units of G6P-DH, was added.
# HK4 = molecular target: T2, HK4 (Homo sapiens, UniProt P35557); assay: In vitro enzyme inhibition assay (G6P-DH coupled, NADH 340 nm); format: biochemical; conditions: recombinant HK4
# T2 construct: made in house; host or cells: E. coli BL21 (DE3)
# T2 sequence (P35557 1-465): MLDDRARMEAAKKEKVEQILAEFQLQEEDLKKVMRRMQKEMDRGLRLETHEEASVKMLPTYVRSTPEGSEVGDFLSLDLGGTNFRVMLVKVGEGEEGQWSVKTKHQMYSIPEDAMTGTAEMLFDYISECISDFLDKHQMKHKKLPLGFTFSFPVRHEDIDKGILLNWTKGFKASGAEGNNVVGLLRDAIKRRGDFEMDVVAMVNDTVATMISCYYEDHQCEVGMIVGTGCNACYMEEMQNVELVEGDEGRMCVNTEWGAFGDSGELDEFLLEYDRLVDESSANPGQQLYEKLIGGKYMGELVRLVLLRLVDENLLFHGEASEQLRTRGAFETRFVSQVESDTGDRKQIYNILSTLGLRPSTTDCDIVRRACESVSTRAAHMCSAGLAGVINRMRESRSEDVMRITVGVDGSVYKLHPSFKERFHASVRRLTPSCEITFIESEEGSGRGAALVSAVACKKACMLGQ
# Procedure: as §1
# HK2 = molecular target: T3, HK2 (Homo sapiens, UniProt P52789); assay: as above; format: biochemical; conditions: recombinant HK2; n.i means no enzyme inhibition; read-out: Enzyme IC50
# T3 construct: made in house; host or cells: E. coli BL21 (DE3)
# T3 sequence (P52789 1-917): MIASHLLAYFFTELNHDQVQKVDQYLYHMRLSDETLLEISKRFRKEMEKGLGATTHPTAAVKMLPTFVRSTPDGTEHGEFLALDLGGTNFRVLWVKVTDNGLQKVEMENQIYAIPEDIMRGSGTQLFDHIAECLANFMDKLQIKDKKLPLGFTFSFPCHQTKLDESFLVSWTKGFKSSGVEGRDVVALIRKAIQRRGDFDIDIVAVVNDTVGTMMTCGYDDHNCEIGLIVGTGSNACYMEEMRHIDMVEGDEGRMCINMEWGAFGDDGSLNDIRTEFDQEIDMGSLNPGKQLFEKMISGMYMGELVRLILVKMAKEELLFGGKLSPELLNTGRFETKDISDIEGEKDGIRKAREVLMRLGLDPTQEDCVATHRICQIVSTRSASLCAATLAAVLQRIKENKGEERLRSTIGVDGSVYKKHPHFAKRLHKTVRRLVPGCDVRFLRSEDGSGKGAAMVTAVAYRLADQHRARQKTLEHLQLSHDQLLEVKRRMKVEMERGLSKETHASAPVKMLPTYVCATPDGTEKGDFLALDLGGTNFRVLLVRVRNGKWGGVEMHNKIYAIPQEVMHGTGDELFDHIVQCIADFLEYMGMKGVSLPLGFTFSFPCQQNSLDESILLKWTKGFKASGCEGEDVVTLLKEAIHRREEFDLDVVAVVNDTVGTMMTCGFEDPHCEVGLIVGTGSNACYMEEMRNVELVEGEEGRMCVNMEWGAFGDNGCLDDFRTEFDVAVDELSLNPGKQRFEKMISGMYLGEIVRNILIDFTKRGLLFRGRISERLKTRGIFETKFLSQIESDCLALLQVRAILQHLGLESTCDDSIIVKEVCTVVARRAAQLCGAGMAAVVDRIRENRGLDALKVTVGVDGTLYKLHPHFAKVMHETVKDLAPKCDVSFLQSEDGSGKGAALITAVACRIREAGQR
# Procedure: as §1
smiles,measurement,setting,value
"NC(CO)C(=O)NNCc1ccc(O)c(O)c1O (stereo not shown) [Benz, Benserazide]",decrease of size and weight of tumors,SW480 cells xenograft; 300 mg/Kg per day i.p.,30.1%
same,decrease of size and weight of tumors,SW480 cells xenograft; 600 mg/Kg per day i.p.,60.3%
same,toxicity in mice,"SW480 cells xenograft; mouse, in vivo",no toxicity shown
same,body weight and histomorphology,"SW480 cells xenograft; tumor-bearing mice, daily i.p. 16 days",no remarkable loss of body weight and change of histomorphology
same,interference with G6P-DH activity,G6P-DH,No Benz interference
same,IC50,HK4,40.5 ± 2.94 µM
same,IC50,HK2,5.52 ± 0.17 µM
